How the values were obtained:
[1] = test system: HCT116 cells; test: HCT116 cell number (Hoechst nuclear stain) on drug-loaded microarray; type: cell-based, human
Excerpt: The following figures (FIGS. 5.1 to 5.4) are micrographs taken from drug-eluting cellular microarrays, manufactured as described herein. The images are taken from individual cellular islands from the same array under various drug-loading conditions over a period of three days. HCT116 cells are nuclear stained with Hoechst for easy visibility. […] The water phase for this experiment was loaded with azide at various concentrations in addition to a control with no drug loaded. Azide is a useful probe reagent, mutagen, and preservative. Azide inhibits cytochrome oxidase by binding irreversibly to the heme cofactor in a process similar to the action of carbon monoxide. As such, it is expected to induce necrosis in cells at physiologically relevant doses.
To establish microarray fidelity, microarrays were manufactured as described above. HCT116 cells were then seeded over microarrays and incubated for 24 or 72 h. Microarrays were fixed in 4% paraformaldehyde and stained with Hoechst 34580 dye.
Camptothecin-loaded microarrays were stained with Annexin V (BD Pharminigen), fixed in 4% paraformaldehyde, and placed in PBS with Hoechst dye 34580 (Invitrogen, USA) for 30 min. Azide-loaded microarrays were fixed with 4% paraformaldehyde and incubated with PBS containing Hoechst 34580 dye. Finally, nutlin-3a-loaded microarrays were fixed with 4% paraformaldehyde, stained with BrdU (BD Bioscience, San Jose, Calif.), and incubated in PBS containing Hoechst 34580 dye. All arrays were mounted with Fluoro-Gel (Electron Microscope Sciences, Hatfield, Pa.) and imaged using an Axiovert 200M microscope (Carl Zeiss, Oberkochen, Germany). Analysis was performed with Axiovision (Carl Zeiss, Oberkochen, Germany) by quantifying, in each drug-eluting island, the area of fluorescence and reported as relative fluorescence intensity (RFI).

[2] = Loading efficiency of small molecules in microarrayed EVA films; type: physicochemical
Method: To embed molecules into the polymer matrix, they were first dissolved in an appropriate solvent, depending on their respective hydrophobicity. A stock solution of azide (99%, Acros), a hydrophilic molecule, was dissolved in dH2O whereas Nutlin-3a (EMD Chemicals, Gibbstown, N.J.) and camptothecin (Sigma), both hydrophobic molecules, were dissolved in DMSO. Dissolved drugs were then added to 5% EVA at a 1:10 ratio of solvent:EVA. Prior to printing, polymer mixtures were vortexed for 30 s and then homogenized for 1 min before being loaded onto the source plate of the robotic mini-arrayer.
To determine the loading efficiency of factors, polymer formulations were made as described above. Films derived from 100 μl EVA loaded with factors were then made on glass coverslips and allowed to dry overnight under vacuum. Films were removed from the glass substrates and weighed. Films were washed briefly with PBS before being placed in 1 ml toluene to dissolve the polymer. Samples were then analyzed using a Nanodrop-ND-1000 spectrophotometer. Standard curves were generated for each factor, and loading efficiency was calculated as the percent of drug embedded in the polymer compared to the theoretical drug concentration.

Question: What does the source list for `[N-]=[N+]=[N-]` [Azide]?
Answer: response of HCT116 cell density on azide-loaded ELVAX islands ([1]; 37.5 and 75 mM azide, 5-68 h): dose-dependent response; cell counts of HCT116 on drug-loaded film after attachment ([1]; 1 h after seeding, across loading concentrations, ANOVA p=0.490): No statistical difference; HCT116 cell numbers vs drug loading concentration ([1]; after 24 h): decreased with increasing loading concentrations; Loading efficiency (%) [2]: 73 +/− 8%

Source: US9557319B2, “Cell-based arrays, methods of making, and methods of using” (University of Florida Research Foundation, Inc., priority 2010, dated 2017)
